Experiments:
[1] = target: Zea mays EPSPS variant 224R 249V (Zea mays, UniProt O24566, K223R/Y248V); assay: EPSPS reaction rate with or without 10 uM glyphosate, 224R 249V; assay type: biochemical; conditions: pH 7; read-out: Reaction rate with 10 μM glyph, % no glyph; also: 50 µM PEP and S3P
Bacterial EPSPS (CP4) = Bacterial EPSPS (CP4) (Agrobacterium sp., UniProt Q9R4E4); assay: Substrate saturation kinetic analysis with glyphosate, bacterial EPSPS (CP4)
From the text: There are several practical considerations for accurately estimating (kcat/KM)*KI with the rapid method. […] If inhibition is too little, v0-vi will be small, and the error in the multiplier vi×v0/(v0-vi) will be large. […] High substrate concentration obscures sensitivity to the inhibitor and reduces stringency for capturing improvements in KM.

[2] = target: T1, Zea mays EPSPS variant Zm-H6 (868-H6) (Zea mays, UniProt O24566, A1R/A3W/A415G/A71Q/D401G/E301S/E390G/G101A/I207L/K83R/L97C/T278A/T360S/T440Q/V437R); assay: Substrate saturation analysis with glyphosate (Example 8), Zm-H6; assay type: biochemical
T1 sequence (O24566 with tags, fused parts or gaps A1R/A3W/A71Q/K83R/L97C/G101A/I207L/T278A/E301S/T360S/E390G/D401G/A415G/V437R/T440Q): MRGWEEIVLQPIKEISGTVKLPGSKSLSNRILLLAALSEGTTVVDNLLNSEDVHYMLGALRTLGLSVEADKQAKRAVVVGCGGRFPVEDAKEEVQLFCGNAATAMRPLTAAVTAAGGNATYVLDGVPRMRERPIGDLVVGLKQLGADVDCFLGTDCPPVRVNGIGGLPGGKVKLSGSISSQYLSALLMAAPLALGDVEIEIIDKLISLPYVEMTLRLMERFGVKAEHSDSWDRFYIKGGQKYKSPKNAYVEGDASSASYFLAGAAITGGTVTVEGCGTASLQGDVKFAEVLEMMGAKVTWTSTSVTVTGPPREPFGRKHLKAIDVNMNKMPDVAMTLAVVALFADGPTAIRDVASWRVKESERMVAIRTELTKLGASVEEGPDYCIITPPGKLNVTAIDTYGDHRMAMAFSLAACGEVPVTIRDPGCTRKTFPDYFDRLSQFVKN
From the text: Generally, (kcat/KM)*KI is obtained by performing substrate saturation analysis in the absence and presence of inhibitor. However, that analysis takes longer. […] To validate the method, (kcat/KM)*KI was quantified using both methods—traditional (saturation) and the instant method (rapid), for variants of maize 5-enolpyruvylshikimate-3-phosphate synthase (EPSPS) and its competitive inhibitor, glyphosate.
The amino acid sequence of mature Zea mays EPSPS was obtained from GenBank entry CAA44974.1 (SEQ ID NO:2). A nucleotide sequence was created to add an N-terminal methionine and to optimize codon usage for expression in E. coli. The synthesized gene was cloned into an expression vector that provides a T7 promoter driving expression of the protein and a 10× N-terminal histidine tag. Variants selected for this study include native maize EPSPS and variants generated by a gene shuffling cascade described herein. […] Protein concentration was determined by absorbance at 280 nm using an extinction coefficient of 0.676 OD/mg/m L. The proteins were normalized to 0.5 mg/mL for assay.
EPSPS activity was determined by quantifying the phosphate generated by the reaction. […] The absorbance change that occurs was monitored continuously at 360 nm, where the extinction is 11,200 M-1 cm-1, with a Spectramax plate reader (Molecular Devices). […]

[3] = target: T1, Zea mays EPSPS variant Zm-H6 (868-H6); assay: Rapid two-rate method for (kcat/KM)*KI, Zm-H6; assay type: biochemical; conditions: [E] 0.07 uM, [Gly] 1000 uM
From the text: In the Michaelis-Menten equation for steady state reaction velocity with competitive inhibition, the term (kcat/KM)*KI cannot be isolated due to the KM and [S] terms in the denominator. However, if two rate measurements are made at different inhibitor concentrations, those terms can be eliminated by subtraction and (kcat/KM)*KI isolated, as follows:
[formula] where v0 and v1 are initial velocities without and with inhibitor but at the same substrate and enzyme concentrations. Although Equations 2 and 3 are equally valid, to generate the data in Table 1, rate measurement was performed with and without inhibitor using Equation 3. Source of Reagents, Enzyme and Variants
EPSPS activity was determined by quantifying the phosphate generated by the reaction. Release of phosphate was coupled to reaction with MESG, catalyzed by purine-nucleoside phosphorylase, using standard methods. The absorbance change that occurs was monitored continuously at 360 nm, where the extinction is 11,200 M-1 cm-1, with a Spectramax plate reader (Molecular Devices). […] The enzyme concentration was adjusted so as to generate sufficient signal without exceeding the limit for linear initial reaction rates. […]
There are several practical considerations for accurately estimating (kcat/KM)*KI with the rapid method. […] Conditions can be set so that variants with a pre-determined minimal fitness level are accurately quantified. […]

Sequence of Bacterial EPSPS (CP4) (Q9R4E4 whole entry): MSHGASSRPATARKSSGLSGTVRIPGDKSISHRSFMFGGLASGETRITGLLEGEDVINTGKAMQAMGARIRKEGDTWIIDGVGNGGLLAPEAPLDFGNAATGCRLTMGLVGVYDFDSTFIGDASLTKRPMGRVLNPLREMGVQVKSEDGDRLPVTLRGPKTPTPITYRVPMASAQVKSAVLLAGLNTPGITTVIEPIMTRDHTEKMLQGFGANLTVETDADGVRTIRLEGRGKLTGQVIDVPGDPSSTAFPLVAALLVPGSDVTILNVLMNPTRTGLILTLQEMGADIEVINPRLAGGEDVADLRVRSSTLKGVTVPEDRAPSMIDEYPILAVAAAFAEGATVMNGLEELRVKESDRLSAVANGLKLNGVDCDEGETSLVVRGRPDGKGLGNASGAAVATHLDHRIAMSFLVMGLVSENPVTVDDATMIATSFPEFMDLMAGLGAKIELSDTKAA
Sequence of Zea mays EPSPS variant 224R 249V (O24566 entry or part of it K223R/Y248V): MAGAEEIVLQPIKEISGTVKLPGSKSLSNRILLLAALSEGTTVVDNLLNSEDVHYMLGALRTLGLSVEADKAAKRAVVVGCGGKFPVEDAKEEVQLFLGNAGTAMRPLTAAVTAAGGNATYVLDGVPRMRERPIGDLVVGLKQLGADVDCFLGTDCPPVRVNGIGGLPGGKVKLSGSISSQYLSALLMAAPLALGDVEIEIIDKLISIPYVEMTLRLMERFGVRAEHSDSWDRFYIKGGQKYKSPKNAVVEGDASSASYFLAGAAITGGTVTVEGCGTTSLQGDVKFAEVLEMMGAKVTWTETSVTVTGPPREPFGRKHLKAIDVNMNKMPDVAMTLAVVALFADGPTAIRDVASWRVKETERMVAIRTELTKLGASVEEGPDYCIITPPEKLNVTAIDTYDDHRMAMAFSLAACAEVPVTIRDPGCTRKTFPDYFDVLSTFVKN

**Q.** How did the activity at 10 µM [1] turn out when `O=C(O)CNCP(=O)(O)O` [glyphosate, N-phosphonomethylglycine] was run?
**A.** 3.09%

**Q.** What about the Ki (Bacterial EPSPS (CP4)) of the same compound?
**A.** 1.41 mM

**Q.** What about the “(kcat/KM)*KI” value (Bacterial EPSPS (CP4); substrate saturation, Bacterial EPSPS / CP4) of the same compound?
**A.** 108900

**Q.** What about the Ki [2] of the same compound?
**A.** 381 µM

**Q.** And the “(kcat/KM)*KI” value ([2]; substrate saturation, Zm-H6)?
**A.** 3660

**Q.** What about the “(kcat/KM)*KI” value [3] of the same compound?
**A.** 4013
